Data reported in the NIST ThermoML archive (doi:10.1016/j.jct.2010.05.009).

Assays:
[1] = refractive index (Na D-line) (dimensionless); xn = mol fraction of the nth substance listed; conditions: 101 kPa, Liquid, Standard Abbe refractometry
[2] = xn = mol fraction of the nth substance listed; conditions: 101 kPa, Liquid; for viscosity: Capillary tube (Ostwald / Ubbelohde) method; for mass density: Vibrating tube method

CCCN [propan-1-amine] + C1CCOC1
Conditions | mass density, [2] [kg/m3] | refractive index, [1] | viscosity, [2] [mPa·s]
288.15 K, x2 = 0 | 721.57 | 1.3899 | 0.3851
288.15 K, x2 = 0.0542 | 730.55 | 1.3908 | 0.3898
288.15 K, x2 = 0.1599 | 748.15 | 1.3927 | 0.3991
288.15 K, x2 = 0.1934 | 753.76 | 1.3933 | 0.4021
288.15 K, x2 = 0.3199 | 775.03 | 1.3956 | 0.4138
288.15 K, x2 = 0.4 | 788.58 | 1.397 | 0.4211
288.15 K, x2 = 0.4789 | 802.01 | 1.3985 | 0.4289
288.15 K, x2 = 0.56 | 815.87 | 1.4 | 0.4371
288.15 K, x2 = 0.6402 | 829.71 | 1.4015 | 0.4455
288.15 K, x2 = 0.7201 | 843.56 | 1.4031 | 0.4546
288.15 K, x2 = 0.8791 | 871.41 | 1.4062 | 0.4765
288.15 K, x2 = 0.9585 | 885.46 | 1.4078 | 0.4902
298.15 K, x2 = 0 | 711.08 | 1.3844 | 0.3585
298.15 K, x2 = 0.0542 | 719.96 | 1.3854 | 0.3632
298.15 K, x2 = 0.1599 | 737.23 | 1.3873 | 0.372
298.15 K, x2 = 0.1934 | 742.73 | 1.3879 | 0.3747
298.15 K, x2 = 0.3199 | 763.65 | 1.3902 | 0.3856
298.15 K, x2 = 0.4 | 777.02 | 1.3917 | 0.3926
298.15 K, x2 = 0.4789 | 790.28 | 1.3931 | 0.3996
298.15 K, x2 = 0.56 | 804.04 | 1.3947 | 0.4071
298.15 K, x2 = 0.6402 | – | 1.3965 | –
298.15 K, x2 = 0.651 | 819.66 | – | 0.4149
298.15 K, x2 = 0.7201 | 831.66 | 1.3978 | 0.4229
298.15 K, x2 = 0.8791 | 859.85 | 1.4011 | 0.4396
298.15 K, x2 = 0.9585 | 874.29 | 1.4028 | 0.4489
308.15 K, x2 = 0 | 700.4 | 1.3784 | 0.3222
308.15 K, x2 = 0.0542 | 709.15 | 1.3793 | 0.3269
308.15 K, x2 = 0.1599 | 726.3 | 1.3812 | 0.3363
308.15 K, x2 = 0.1934 | 731.73 | 1.3818 | 0.3393
308.15 K, x2 = 0.3199 | 752.47 | 1.3842 | 0.3509
308.15 K, x2 = 0.4 | 765.73 | 1.3857 | 0.3584
308.15 K, x2 = 0.4789 | 778.88 | 1.3873 | 0.3659
308.15 K, x2 = 0.56 | 792.57 | 1.3889 | 0.3736
308.15 K, x2 = 0.6402 | – | 1.3906 | –
308.15 K, x2 = 0.651 | 806.31 | – | 0.3813
308.15 K, x2 = 0.7201 | 820.22 | 1.3923 | 0.3891
308.15 K, x2 = 0.8791 | 848.66 | 1.3958 | 0.4049
308.15 K, x2 = 0.9585 | 863.3 | 1.3977 | 0.4129
